Tests used:
[1] = system: phospholipidosis; details: phospholipidosis reported in vitro; Refs of Table 1; cited from earlier work
[2] = system: phospholipidosis; details: phospholipidosis reported in vivo, species codes; Refs of Table 1; cited from earlier work
[3] = target: T1, recombinant mouse LPLA2 (PLA2G15) (Mus musculus, UniProt Q8VEB4); experiment: Transacylase activity of LPLA2 (1-O-acyl-N-acetylsphingosine synthase, cell-free liposome assay); type: biochemical; details: for IC50: 1-O-acyl N-acetylsphingosine synthase activity, pH 4.5, DOPC/sulfatide liposomes, read-out: LPLA2 IC50
T1 construct: purchased Proteos Inc. (Kalamazoo, MI)
T1 sequence (Q8VEB4 34-412): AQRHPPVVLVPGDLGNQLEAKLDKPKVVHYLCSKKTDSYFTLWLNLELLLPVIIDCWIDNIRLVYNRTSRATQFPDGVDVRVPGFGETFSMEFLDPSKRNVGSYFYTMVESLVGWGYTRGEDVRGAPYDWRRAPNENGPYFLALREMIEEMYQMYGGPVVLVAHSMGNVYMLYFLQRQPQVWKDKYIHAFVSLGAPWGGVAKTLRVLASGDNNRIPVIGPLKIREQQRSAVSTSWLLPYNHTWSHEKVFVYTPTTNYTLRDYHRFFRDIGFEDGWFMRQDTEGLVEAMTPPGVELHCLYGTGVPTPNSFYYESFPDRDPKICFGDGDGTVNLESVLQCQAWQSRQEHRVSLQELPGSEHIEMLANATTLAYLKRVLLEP

[4] = target: T2, LPLA2 (Mus musculus, UniProt Q8VEB4); experiment: LPLA2 thermal stability measurement (SYPRO Orange Tm); type: binding; details: N=3 ± SD
T2 construct: purchased Proteos Inc. (Kalamazoo, MI)
T2 sequence (Q8VEB4 34-412): T1 sequence (Q8VEB4 34-412)

[5] = ref Pubchem and chEMBL databases; cited from earlier work

CCCCc1oc2ccccc2c1C(=O)c1cc(I)c(OCCN(CC)CC)c(I)c1 [Amiodarone, {2-[4-(2-butyl-1-benzofuran-3-carbonyl)-2,6-diiodophenoxy]ethyl} diethyl amine]
In Vitro PLD [1]: Yes | In Vivo PLD [2]: H,R

CN(C)CCC=C1c2ccccc2CCc2ccccc21 [Amitriptyline, dimethyl(3-{tricyclo[9.4.0.0^3,^8]pentadeca-1(15),3,5,7,11,13-hexaen-2-ylidene}propyl)amine]
IC50 [3]: 14.7 µM | (ΔTm)c-(ΔTm)d, difference in melting temperature of LPLA2 alone or in the presence of drug [4]: -0.5 ± 0.0 °C | In Vitro PLD [1]: Yes | In Vivo PLD [2]: R

CCN(CC)CCCC(C)Nc1ccnc2cc(Cl)ccc12 (stereo not drawn) [Chloroquine, 7-chloro-N-[5-(diethylamino)pentan-2-yl]quinolin-4-amine]
IC50 [3]: 655 µM | In Vitro PLD [1]: Yes | In Vivo PLD [2]: H, R, D, M

CN(C)CCCN1c2ccccc2Sc2ccc(Cl)cc21 [Chlorpromazine, [3-(2-chloro-10H-phenothiazin-10-yl)propyl] dimethylamine]
IC50 [3]: 9.01 µM | (ΔTm)c-(ΔTm)d, difference in melting temperature of LPLA2 alone or in the presence of drug [4]: -2.1 ± 0.2 °C | In Vitro PLD [1]: Yes | In Vivo PLD [2]: R, D

CN(C)CCCC1(c2ccc(F)cc2)OCc2cc(C#N)ccc21 (stereo not drawn) [Citalopram, 1-[3-(dimethylamino)propyl]-1-(4-fluorophenyl)-1,3-dihydro-2-benzofuran-5-carbonitrile]
IC50 [3]: 19.5 µM | (ΔTm)c-(ΔTm)d, difference in melting temperature of LPLA2 alone or in the presence of drug [4]: 0 °C | In Vitro PLD [1]: Yes | In Vivo PLD [2]: Yes

CCC[C@@H]1C[C@@H](C(=O)NC(C(C)Cl)[C@H]2O[C@H](SC)[C@H](O)[C@@H](O)[C@H]2O)N(C)C1 (stereo partly drawn) [Clindamycin, (2S,4R)-N-{2-chloro-1-[(2R,3R,4S,5R,6R)-3,4,5-trihydroxy-6-(methylsulfanyl)oxan-2-yl]propyl}-1-methyl-4-propylpyrrolidine-2-carboxamide]
In Vitro PLD [1]: Yes | In Vivo PLD [2]: Yes

CN(C)CCC=C1c2ccccc2C=Cc2ccccc21 [Cyclobenzaprine, dimethyl(3-{tricyclo[9.4.0.0^3,^8]pentadeca-1(15),3,5,7,9,11,13-heptaen-2-ylidene}propyl)amine]
IC50 [3]: 6.24 µM | In Vitro PLD [1]: Yes | In Vivo PLD [2]: Yes

CNCCCN1c2ccccc2CCc2ccccc21 [Desipramine, (3-{2-azatricyclo [9.4.0.0]pentadeca-1(15),3,5,7,11,13-hexaen-2-yl}propyl)(methyl)amine]
IC50 [3]: 25.7 µM | (ΔTm)c-(ΔTm)d, difference in melting temperature of LPLA2 alone or in the presence of drug [4]: 1.60 ± 0.1 °C | In Vitro PLD [1]: Yes | In Vivo PLD [2]: R

CN(C)CCC=C1c2ccccc2COc2ccccc21 [Doxepin, dimethyl(3-{9-oxatricyclo[9.4.0.0ˆ[1]]pentadeca-1(15),3,5,7,11,13-hexaen-2-ylidene}propyl)amine]
pKa (basic) [5]: 9.76 | In Vitro PLD [1]: Yes | In Vivo PLD [2]: Yes

CNCCC(Oc1ccc(C(F)(F)F)cc1)c1ccccc1 (stereo not drawn) [Fluoxetine, methyl({3-phenyl-3-[4-(trifluoromethyl)phenoxy]propyl}) amine]
In Vitro PLD [1]: Yes | In Vivo PLD [2]: H,R,M

OCCOCCN1CCN(C(c2ccccc2)c2ccc(Cl)cc2)CC1 (stereo not drawn) [Hydroxyzine, 2-(2-{4-[(4-chlorophenyl) (phenyl)methyl]piperazin-1-yl}ethoxy)ethan-1-ol]
IC50 [3]: 63 µM | (ΔTm)c-(ΔTm)d, difference in melting temperature of LPLA2 alone or in the presence of drug [4]: -0.10 ± 0.0 °C | pKa (basic) [5]: 7.82 | In Vivo PLD [2]: R

CN(C)CCCN1c2ccccc2CCc2ccccc21 [Imipramine, (3-{2-azatricyclo[9.4.0.0^3,^8]pentadeca-1(15),3,5,7,11, 13-hexaen-2-yl}propyl)dimethylamine]
IC50 [3]: 27.6 µM | (ΔTm)c-(ΔTm)d, difference in melting temperature of LPLA2 alone or in the presence of drug [4]: 0 °C | pKa (basic) [5]: 9.2 | In Vitro PLD [1]: Yes | In Vivo PLD [2]: R

O=C(NC1CCN(CCc2c[nH]c3ccccc23)CC1)c1ccccc1 [Indoramin, N-{1-[2-(1H-indol-3-yl)ethyl]piperidin-4-yl} benzamide]
IC50 [3]: 124 µM | (ΔTm)c-(ΔTm)d, difference in melting temperature of LPLA2 alone or in the presence of drug [4]: 1.08 ± 0.4 °C | pKa (basic) [5]: 9.59 | In Vitro PLD [1]: Yes | In Vivo PLD [2]: R

CNCCCC12CCC(c3ccccc31)c1ccccc12 [Maprotiline, methyl(3-{tetracyclo [6.6.2.0^2,^7.0^9,^14]hexadeca-2,4,6,9,11, 13-hexaen-1-yl}propyl)amine]
pKa (basic) [5]: 10.54 | In Vivo PLD [2]: R

C1CCC(C(CC2CCCCN2)C2CCCCC2)CC1 (stereo not drawn) [Perhexiline, 2-(2,2-dicyclohexylethyl) piperidine]
IC50 [3]: 11.7 µM | (ΔTm)c-(ΔTm)d, difference in melting temperature of LPLA2 alone or in the presence of drug [4]: -0.12 ± 0.0 °C | pKa (basic) [5]: 10.58 | In Vitro PLD [1]: Yes | In Vivo PLD [2]: H,R,M

CN(C)CCCN1c2ccccc2Sc2ccccc21 [Promazine, dimethyl[3-(10H-phenothiazin-10-yl)propyl]amine]
IC50 [3]: 39 µM | (ΔTm)c-(ΔTm)d, difference in melting temperature of LPLA2 alone or in the presence of drug [4]: -0.10 ± 0.0 °C | pKa (basic) [5]: 9.2 | In Vitro PLD [1]: Yes | In Vivo PLD [2]: R

CC(CN1c2ccccc2Sc2ccccc21)N(C)C (stereo not drawn) [Promethazine, dimethyl[1-(10H-phenothiazin-10-yl)propan-2-yl] amine]
IC50 [3]: 40.3 µM | (ΔTm)c-(ΔTm)d, difference in melting temperature of LPLA2 alone or in the presence of drug [4]: 1.45 ± 0.5 °C | In Vitro PLD [1]: Yes | In Vivo PLD [2]: Yes

CCN(CC)CCCC(C)Nc1c2ccc(Cl)cc2nc2ccc(OC)cc12.Cl.Cl (stereo not drawn) [Quinacrine, 6-chloro-9-(4-diethylamino-1-methylbutylamino)-2-methoxyacridine dihydrochloride]
In Vitro PLD [1]: Yes | In Vivo PLD [2]: R

C=C[C@H]1C[N@@]2CC[C@H]1C[C@H]2[C@H](O)c1ccnc2ccc(OC)cc12 [Quinine, (R)-[(1S,2S,4S,5R)-5-ethenyl-1-azabicyclo [2.2.2]octan-2-yl](6-methoxyquinolin-4-yl)methanol]
IC50 [3]: 164 µM | (ΔTm)c-(ΔTm)d, difference in melting temperature of LPLA2 alone or in the presence of drug [4]: -1.00 ± 0.1 °C | In Vivo PLD [2]: Yes

CN[C@H]1CC[C@@H](c2ccc(Cl)c(Cl)c2)c2ccccc21 [Sertraline, (1S,4S)-4-(3,4-dichlorophenyl)-N-methyl-1,2,3,4-tetrahydronaphthalen-1-amine]
In Vitro PLD [1]: Yes | In Vivo PLD [2]: Yes

CCN1CCCC1CNC(=O)c1cc(S(N)(=O)=O)ccc1OC (stereo not drawn) [Sulpiride, N-[(1-ethylpyrrolidin-2-yl)methyl]-2-methoxy-5-sulfamoylbenzamide]
LPLA2 inhibition (in words) ([3]; acyl transferase activity): no inhibitory activity | (ΔTm)c-(ΔTm)d, difference in melting temperature of LPLA2 alone or in the presence of drug [4]: 1.34 ± 0.9 °C | pKa (basic) [5]: 8.4 | In Vivo PLD [2]: Yes

NC[C@H]1O[C@H](O[C@H]2[C@H](O)[C@@H](O[C@H]3O[C@H](CO)[C@@H](O)[C@H](N)[C@H]3O)[C@H](N)C[C@@H]2N)[C@H](N)C[C@@H]1O [Tobramycin, O-[3-amino-3-deoxy-α-D-glucopyranosyl-(1→6)]-O-[2,6-diamino-2,3,6-trideoxy-α-D-ribohexopyranosyl-(1→4)]-2-deoxy-D-streptamine]
IC50 [3]: 33 µM | (ΔTm)c-(ΔTm)d, difference in melting temperature of LPLA2 alone or in the presence of drug [4]: 0.27 ± 0.1 °C | pKa (basic) [5]: 9.8 | In Vitro PLD [1]: Yes | In Vivo PLD [2]: R,H

CCN(CC)CCOc1ccc(C(O)(Cc2ccc(Cl)cc2)c2ccc(C)cc2)cc1 (stereo not drawn) [Triparanol, 1-(4-(2-diethylaminoethoxy)phenyl)-1-p-tolyl-2-(4-chlorophenyl)ethanol]
IC50 [3]: 7.8 µM | (ΔTm)c-(ΔTm)d, difference in melting temperature of LPLA2 alone or in the presence of drug [4]: 0 °C | pKa (basic) [5]: 13.44 | In Vitro PLD [1]: Yes | In Vivo PLD [2]: R, M, Ha

Clc1ccccc1CNC[C@H]1CC[C@H](CNCc2ccccc2Cl)CC1 [ay-9944, trans-1,4-bis(2-chlorobenzylaminomethyl) cyclohexane]
IC50 [3]: 116 µM | (ΔTm)c-(ΔTm)d, difference in melting temperature of LPLA2 alone or in the presence of drug [4]: 0.58 ± 0.4 °C | pKa (basic) [5]: 9.1 | In Vitro PLD [1]: Yes | In Vivo PLD [2]: R,Ra, M
